{
  "source": "paper PMC3921447",
  "about": "“Homologous and heterologous desensitization of guanylyl cyclase-B signaling in GH3 somatolactotropes” (Cell and Tissue Research, 2013)",
  "key": {"Npr2": {"system": "Npr2", "assay": "Npr2 mRNA expression by qPCR in GH3 cells", "type": "cell-based, rat", "conditions": "100 nM CNP, 24 h; n = 3; Fig. 4a", "description": "Total RNA was extracted from 1 × 10^6 GH3 cells or from male Sprague Dawley rat pituitaries by using Tri-reagent (Sigma-Aldrich, Poole, UK) and subjected to DNase treatment (Qiagen, Manchester, UK) before generation of first-strand cDNA (Applied Biosystems, Warrington, UK). Polymerase chain reaction (PCR) was performed for a range of targets for 30 cycles by using the primers and conditions published previously (Thompson et al. [2009]). In some instances, GH3 cells were treated with 0 or 100 nM CNP for 24 h prior to RNA extraction. These samples were processed for […] PCR (qPCR) analyses with commercially available rat Npr2 and 18S primer sets (Qiagen, Manchester, UK) under standard SYBR conditions as described previously (Bayol et al. [2010]).\nWe next examined whether Npr2 or GC-B down-regulation (as determined by a reduction in Npr2 mRNA expression and or GC-B protein expression) mediated the inhibitory effects of sustained CNP exposure. The effect of CNP exposure on the expression of the endogenous Npr2 gene was examined by using qPCR. […]\nFig. 4 CNP fails to alter expression of Npr2 mRNA or GC-B protein in GH3 somatolactotrope cells. a GH3 cells were stimulated with 0 or 100 nM CNP for 24 h prior to extraction of total RNA, cDNA synthesis, and quantitative PCR for endogenous Npr2 expression. […]"}, "GC-B": {"target": "T1, GC-B (Rattus norvegicus, UniProt P16067)", "T1 construct": "rapid homologous desensitization of endogenous GC-B receptors in GH3 cells; endogenous in cells; host or cells: GH3 rat somatolactotrope cells", "T1 sequence (P16067 17-1047)": "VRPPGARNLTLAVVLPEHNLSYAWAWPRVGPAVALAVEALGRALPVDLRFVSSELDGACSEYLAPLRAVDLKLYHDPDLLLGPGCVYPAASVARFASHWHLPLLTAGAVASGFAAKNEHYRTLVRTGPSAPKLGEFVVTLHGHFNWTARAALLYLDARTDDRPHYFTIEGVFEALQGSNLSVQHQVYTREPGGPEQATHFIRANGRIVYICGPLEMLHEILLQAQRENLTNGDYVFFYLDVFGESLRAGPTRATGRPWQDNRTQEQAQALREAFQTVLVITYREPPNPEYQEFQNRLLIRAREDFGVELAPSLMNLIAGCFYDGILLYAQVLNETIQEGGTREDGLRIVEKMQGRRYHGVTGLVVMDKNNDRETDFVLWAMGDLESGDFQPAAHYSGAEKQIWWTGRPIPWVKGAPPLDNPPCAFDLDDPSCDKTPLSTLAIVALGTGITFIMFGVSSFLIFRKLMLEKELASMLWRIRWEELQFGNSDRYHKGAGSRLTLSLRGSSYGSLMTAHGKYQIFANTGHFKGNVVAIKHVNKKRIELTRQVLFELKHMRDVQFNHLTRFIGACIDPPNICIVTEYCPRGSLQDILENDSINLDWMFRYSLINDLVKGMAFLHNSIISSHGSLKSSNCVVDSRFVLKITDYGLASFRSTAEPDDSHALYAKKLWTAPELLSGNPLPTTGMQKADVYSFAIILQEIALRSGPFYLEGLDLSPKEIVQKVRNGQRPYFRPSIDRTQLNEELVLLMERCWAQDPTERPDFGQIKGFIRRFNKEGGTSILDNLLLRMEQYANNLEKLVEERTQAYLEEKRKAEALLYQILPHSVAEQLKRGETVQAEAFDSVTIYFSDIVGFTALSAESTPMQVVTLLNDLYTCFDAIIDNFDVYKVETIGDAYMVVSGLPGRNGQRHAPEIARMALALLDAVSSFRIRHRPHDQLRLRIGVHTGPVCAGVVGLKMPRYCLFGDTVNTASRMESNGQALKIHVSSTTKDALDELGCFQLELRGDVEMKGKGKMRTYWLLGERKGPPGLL", "assay": "CNP time-course of total cGMP accumulation (rapid homologous desensitization) in GH3 cells", "type": "cell-based", "conditions": "100 nM CNP, 1 mM IBMX, n = 3 in triplicate", "description": "To characterize the activity of these receptors further , a series of experiments was performed to examine mechanisms of receptor desensitization. Total cGMP accumulation was measured to determine the changes in activity of the GC-A and GC-B receptors when treated over a short time-course with their native ligands, namely ANP and CNP, respectively. GH3 cells were plated at 3 × 10^5 cells/well in a 24-well plate, treated with 100 nM of either ANP or CNP in the presence of the phosphodiesterase inhibitor IBMX (1 mM) for 0 to 15 min and assayed for total cGMP concentration (Fig. 2a, b). […] In another experiment performed with 100 nM ANP instead of CNP, a rapid increase in cGMP accumulation (7.91 ± 0.9 to 164.31 ± 9.1pmol/ml per milligram protein) occurred between 0 and 5 min.\nFig. 2 Rapid homologous desensitization of CNP-dependent but not ANP-dependent cGMP accumulation in GH3 cells. Cells were treated with PSS containing either (a) 100 nM CNP or (b) 100 nM ANP for 0–15 min in the presence of 1 mM IBMX."}},
  "data": [
    {"smiles": "CC[C@H](C)[C@@H]1NC(=O)[C@H](CCCNC(=N)N)NC(=O)[C@H](CC(=O)O)NC(=O)[C@H](CC(C)C)NC(=O)[C@H](CCCCN)NC(=O)[C@H](CC(C)C)NC(=O)CNC(=O)[C@H](Cc2ccccc2)NC(=O)[C@@H](NC(=O)CNC(=O)[C@H](CCCCN)NC(=O)[C@H](CO)NC(=O)[C@H](CC(C)C)NC(=O)CN)CSSC[C@@H](C(=O)O)NC(=O)CNC(=O)[C@H](CC(C)C)NC(=O)CNC(=O)[C@H](CO)NC(=O)[C@H](CCSC)NC(=O)[C@H](CO)NC(=O)CNC1=O", "note": "[CNP, C-type natriuretic peptide]", "values": [
      {"measurement": "Npr2 mRNA expression", "setting": "Npr2", "result": "failed to alter Npr2 expression in GH3 cells"},
      {"measurement": "total cGMP accumulation, 0 min", "setting": "GC-B; 0 min (start of time-course), mean ± SEM", "result": "6.4 ± 0.7 pmol/ml per milligram protein"},
      {"measurement": "rate of cGMP accumulation between 5 to 15 min as % of the initial rate (0 to 5 min)", "setting": "GC-B; ***P < 0.001", "result": "22.2 ± 3.9", "unit": "%"},
      {"measurement": "total cGMP accumulation, 5 min", "setting": "GC-B; 5 min, mean ± SEM", "result": "82.7 ± 15.5 pmol/ml per milligram protein"},
      {"measurement": "total cGMP accumulation, 15 min", "setting": "GC-B; 15 min, mean ± SEM", "result": "117.4 ± 17.6 pmol/ml per milligram protein"}
    ]}
  ]
}
